Results from PubChem BioAssay (NCI).
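The concentration for 50% growth inhibition is given as GI50. Definition used: TGI = concentration required for complete inhibition of growth.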

Assays:
Assay in all cases: NCI anticancer screen, dose series, 384-well format
SNB-19 CNS = system: SNB-19 CNS
SN12C renal = system: SN12C renal
EKVX NSCLC = system: EKVX NSCLC
SF-539 CNS = system: SF-539 CNS
PC-3 prostate = system: PC-3 prostate
MDA-MB-231 breast = system: MDA-MB-231 breast
U251 glioblastoma = system: U251 glioblastoma
A549 NSCLC = system: A549 NSCLC
CCRF-CEM leukemia = system: CCRF-CEM leukemia
MCF7 breast = system: MCF7 breast
SNB-75 CNS = system: SNB-75 CNS
T-47D breast = system: T-47D breast
786-0 renal = system: 786-0 renal
UACC-62 melanoma = system: UACC-62 melanoma
DU-145 prostate = system: DU-145 prostate
SK-MEL-2 melanoma = system: SK-MEL-2 melanoma
OVCAR-3 ovarian = system: OVCAR-3 ovarian
K-562 leukemia = system: K-562 leukemia
HCT-116 colon = system: HCT-116 colon
SK-MEL-5 melanoma = system: SK-MEL-5 melanoma
UACC-257 melanoma = system: UACC-257 melanoma
NCI-H23 lung = system: NCI-H23 lung
NCI/ADR-RES ovarian = system: NCI/ADR-RES ovarian
NCI-H322M lung = system: NCI-H322M lung
SK-MEL-28 melanoma = system: SK-MEL-28 melanoma
HOP-92 NSCLC = system: HOP-92 NSCLC
NCI-H460 NSCLC = system: NCI-H460 NSCLC
SR leukemia = system: SR leukemia
CAKI-1 renal = system: CAKI-1 renal
A498 renal = system: A498 renal

For NC(=O)Nc1cc(-c2cccc(F)c2)sc1C(=O)N[C@H]1CCCNC1, the TGI (SNB-19 CNS) was 2290 nM, the GI50 (SN12C renal) was 130 nM and the TGI (SN12C renal) was 968 nM. It also gave a GI50 (EKVX NSCLC) of 389 nM, a TGI (EKVX NSCLC) of 2150 nM and a GI50 (SF-539 CNS) of 22.8 nM. The TGI (SF-539 CNS) was 104 nM, the GI50 (PC-3 prostate) was 259 nM and the TGI (PC-3 prostate) was 3960 nM. It also gave a GI50 (MDA-MB-231 breast) of 300 nM, a TGI (MDA-MB-231 breast) of 1570 nM and a GI50 (U251 glioblastoma) of 385 nM. It also gave a TGI (U251 glioblastoma) of 2880 nM, a GI50 (A549 NSCLC) of 315 nM and a TGI (A549 NSCLC) of 1570 nM. For the same compound, the GI50 (CCRF-CEM leukemia) was 40.4 nM, the TGI (CCRF-CEM leukemia) was 192 nM and the GI50 (MCF7 breast) was 53.3 nM. For the same compound, the TGI (MCF7 breast) was 12200 nM, the GI50 (SNB-75 CNS) was 188 nM and the TGI (SNB-75 CNS) was 1260 nM. It also gave a GI50 (T-47D breast) of 12700 nM, a TGI (T-47D breast) of 25400 nM and a GI50 ([…]-0 renal) of 179 nM. It also gave a TGI (786-0 renal) of 1050 nM, a GI50 (UACC-62 melanoma) of 319 nM and a TGI (UACC-62 melanoma) of 3330 nM. It also gave a GI50 (DU-145 prostate) of 290 nM, a TGI (DU-145 prostate) of 1340 nM and a GI50 (SK-MEL-2 melanoma) of 108 nM. It also gave a TGI (SK-MEL-2 melanoma) of 284 nM, a GI50 (OVCAR-3 ovarian) of 103 nM and a TGI (OVCAR-3 ovarian) of 539 nM. The GI50 (K-562 leukemia) was 103 nM, the TGI (K-562 leukemia) was 237 nM and the GI50 (HCT-116 colon) was 1000 nM. The TGI (HCT-116 colon) was 2670 nM, the GI50 (SK-MEL-5 melanoma) was 127 nM and the TGI (SK-MEL-5 melanoma) was 408 nM. It also gave a GI50 (UACC-257 melanoma) of 1970 nM, a TGI (UACC-257 melanoma) of 11100 nM and a GI50 (NCI-H23 lung) of 66.5 nM. It also gave a TGI (NCI-H23 lung) of 267 nM, a GI50 (NCI/ADR-RES ovarian) of 9190 nM and a TGI (NCI/ADR-RES ovarian) of 23000 nM. The GI50 (NCI-H322M lung) was 161 nM, the TGI (NCI-H322M lung) was 967 nM and the GI50 (SK-MEL-28 melanoma) was 1500 nM. The TGI (SK-MEL-28 melanoma) was 8600 nM, the GI50 (HOP-92 NSCLC) was 38.1 nM and the TGI (HOP-92 NSCLC) was 407 nM. For the same compound, the GI50 (NCI-H460 NSCLC) was 284 nM, the TGI (NCI-H460 NSCLC) was 2060 nM and the GI50 (SR leukemia) was 36.5 nM. It also gave a TGI (SR leukemia) of 154 nM, a GI50 (CAKI-1 renal) of 294 nM and a TGI (CAKI-1 renal) of 1500 nM. For the same compound, the GI50 (A498 renal) was 32.3 nM and the TGI (A498 renal) was 144 nM.
